Measured values from ChEMBL document CHEMBL4680295, “Structure guided development of potent piperazine-derived hydroxamic acid inhibitors targeting falcilysin” (Bioorg Med Chem Lett, 2021).

Assays:
Falcilysin = molecular target: T1, Falcilysin (Plasmodium falciparum (isolate 3D7), UniProt Q76NL8); assay: Inhibition of Plasmodium falciparum FLN
T1 sequence (Q76NL8 whole entry): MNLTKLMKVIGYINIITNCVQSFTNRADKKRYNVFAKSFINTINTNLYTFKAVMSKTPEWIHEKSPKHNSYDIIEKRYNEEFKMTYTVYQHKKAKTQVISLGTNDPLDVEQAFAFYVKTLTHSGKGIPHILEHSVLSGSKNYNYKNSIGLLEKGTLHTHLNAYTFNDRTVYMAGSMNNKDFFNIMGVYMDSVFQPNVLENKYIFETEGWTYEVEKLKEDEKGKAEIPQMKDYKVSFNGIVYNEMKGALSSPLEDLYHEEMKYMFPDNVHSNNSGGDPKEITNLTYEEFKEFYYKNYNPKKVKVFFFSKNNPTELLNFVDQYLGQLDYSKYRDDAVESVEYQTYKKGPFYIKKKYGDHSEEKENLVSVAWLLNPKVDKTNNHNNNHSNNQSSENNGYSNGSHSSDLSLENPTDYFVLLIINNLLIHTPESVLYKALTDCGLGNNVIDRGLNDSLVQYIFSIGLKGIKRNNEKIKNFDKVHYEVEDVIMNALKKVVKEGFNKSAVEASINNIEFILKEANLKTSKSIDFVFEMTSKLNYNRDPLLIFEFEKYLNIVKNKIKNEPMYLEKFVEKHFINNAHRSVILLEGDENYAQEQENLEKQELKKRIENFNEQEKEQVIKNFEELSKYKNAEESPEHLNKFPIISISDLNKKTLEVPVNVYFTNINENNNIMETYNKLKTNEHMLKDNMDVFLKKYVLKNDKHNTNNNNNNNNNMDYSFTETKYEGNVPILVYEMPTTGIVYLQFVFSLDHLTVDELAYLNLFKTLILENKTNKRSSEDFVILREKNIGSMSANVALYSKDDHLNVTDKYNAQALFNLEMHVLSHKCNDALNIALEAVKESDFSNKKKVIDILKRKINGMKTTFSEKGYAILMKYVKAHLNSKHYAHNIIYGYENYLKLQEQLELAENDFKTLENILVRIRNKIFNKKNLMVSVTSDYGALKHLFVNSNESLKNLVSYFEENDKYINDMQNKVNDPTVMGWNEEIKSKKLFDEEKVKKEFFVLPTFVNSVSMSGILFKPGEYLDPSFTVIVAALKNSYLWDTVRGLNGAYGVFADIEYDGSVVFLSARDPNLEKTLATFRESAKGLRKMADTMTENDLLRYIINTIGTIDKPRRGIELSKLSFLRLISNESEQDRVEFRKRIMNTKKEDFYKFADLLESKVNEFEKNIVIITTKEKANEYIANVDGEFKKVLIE

Plasmodium falciparum = assay: Parasiticidal activity against Plasmodium falciparum 3D7; format: functional, organism-based

SMILES | Ki (Falcilysin) [µM] | EC50 (Plasmodium falciparum) [µM]
O=C(NO)C1CN(C(=O)c2ccc(-c3ccccc3)cc2)CCN1S(=O)(=O)c1ccc(Br)cc1 (centres undefined) | 3 | 2.6
CNC(=O)C1CN(S(=O)(=O)c2ccc(-c3ccccc3)cc2)CCN1S(=O)(=O)c1cccc(CCc2ccccc2)c1 (centres undefined) | 2.5 | 2.1
COC(=O)C1CN(S(=O)(=O)c2ccc(-c3ccccc3)cc2)CCN1S(=O)(=O)c1ccc(/C=C/c2ccccc2)cc1 (centres undefined) | 0.6 | 0.8
C#Cc1ccc(S(=O)(=O)N2CCN(C(=O)c3ccc(I)cc3)CC2C(=O)NO)cc1 (centres undefined) | > 25 | > 25
O=C(NO)C1CN(C(=O)c2cccc3ccccc23)CCN1S(=O)(=O)c1ccc(Br)cc1 (centres undefined) | 9 | 4
O=C(NO)C1CN(Cc2ccc(-c3ccccc3)cc2)CCN1S(=O)(=O)c1ccc(I)cc1 (centres undefined) | 4.9 | 5
CNC(=O)C1CN(S(=O)(=O)c2ccc(-c3cccnc3OC)cc2)CCN1S(=O)(=O)c1ccc(-c2ccccc2)cc1 (centres undefined) | 4 | 1.4
O=C(NO)C1CN(C(=O)c2ccc(-c3ccccc3)cc2)CCN1S(=O)(=O)c1ccc(-c2ccccc2)cc1 (centres undefined) | 10 | > 25
CNC(=O)C1CN(S(=O)(=O)c2ccc(-c3ccccc3)cc2)CCN1S(=O)(=O)c1cccc(-c2cccnc2OC)c1 (centres undefined) | 4 | 6
O=C(NO)C1CN(S(=O)(=O)c2ccc(-c3ccccc3)cc2)CCN1S(=O)(=O)c1cccc(Br)c1 (centres undefined) | 1.4 | 1.6
COC(=O)C1CN(S(=O)(=O)c2ccc(-c3ccccc3)cc2)CCN1S(=O)(=O)c1ccc(-c2ccccc2)cc1 (centres undefined) | 2.5 | 2.1
O=C(NO)C1CN(C(=O)c2ccc3ccccc3c2)CCN1S(=O)(=O)c1ccc(Br)cc1 (centres undefined) | 3.5 | 7
O=C(NO)C1CN(C(=O)c2ccc(-c3ccccc3)cc2)CCN1S(=O)(=O)c1ccc(-c2ccsc2)cc1 (centres undefined) | 11 | 6
CNC(=O)C1CN(S(=O)(=O)c2ccc(I)cc2)CCN1S(=O)(=O)c1ccc(-c2ccccc2)cc1 (centres undefined) | 2.6 | 9
O=C(NO)C1CN(S(=O)(=O)c2ccc(Cc3ccccc3)cc2)CCN1S(=O)(=O)c1ccc(Br)cc1 (centres undefined) | > 25 | > 25
O=C(NO)C1CN(S(=O)(=O)c2ccc(-c3ccccc3)cc2)CCN1S(=O)(=O)c1cccc(-c2ccccc2)c1 (centres undefined) | 0.9 | 7
O=C(NO)C1CN(C(=O)c2ccc(I)cc2)CCN1S(=O)(=O)c1ccc(Br)cc1 (centres undefined) | > 25 | > 25
CNC(=O)C1CN(S(=O)(=O)c2ccc(-c3ccccc3)cc2)CCN1S(=O)(=O)c1cccc(-c2ccc(C(=O)c3ccccc3)cc2)c1 (centres undefined) | 1.7 | 0.9
O=C(NO)C1CN(Cc2ccc(-c3ccccc3)cc2)CCN1S(=O)(=O)c1ccc(Br)cc1 (centres undefined) | 5 | 10
O=C(NO)C1CN(C(=O)c2ccc(-c3ccccc3)cc2)CCN1S(=O)(=O)c1ccc(I)cc1 (centres undefined) | 4 | 3
C#Cc1ccc(S(=O)(=O)N2CCN(C(=O)c3ccc(C(=O)c4ccccc4)cc3)CC2C(=O)NO)cc1 (centres undefined) | > 25 | 6
CNC(=O)C1CN(S(=O)(=O)c2cccc(Br)c2)CCN1S(=O)(=O)c1ccc(-c2ccccc2)cc1 (centres undefined) | 1.4 | 4.7
C#Cc1ccc(S(=O)(=O)N2CCNCC2C(=O)NO)cc1 (centres undefined) | > 25 | > 25
COC(=O)C1CN(Cc2ccc(-c3ccccc3)cc2)CCN1S(=O)(=O)c1ccc(Br)cc1 (centres undefined) | 4 | 1.4
O=C(NO)C1CN(S(=O)(=O)c2ccc(/C=C/c3ccccc3)cc2)CCN1S(=O)(=O)c1ccc(-c2ccccc2)cc1 (centres undefined) | 1.1 | 16
O=C(NO)C1CN(S(=O)(=O)c2ccc(-c3ccccc3)cc2)CCN1S(=O)(=O)c1ccc(-c2ccccc2)cc1 (centres undefined) | 0.22 | 7
CNC(=O)C1CN(S(=O)(=O)c2ccc(-c3ccccc3)cc2)CCN1S(=O)(=O)c1cccc(/C=C/c2ccccc2)c1 (centres undefined) | 1 | 5
